Patent US12358983B2, “Combination of anti CD19 antibody with a BCL-2 inhibitor and uses thereof” (Incyte Corporation, priority 2016, dated 2025)
Marks after values point to notes of the source that are not given here.

Columns and labels:
[1] = tested on: MEC-1 cells; assay: Cytotoxicity (ADCC assay with NK effector cells) of MOR00208 and venetoclax alone and in combination in MEC-1 cells; format: cell-based
From the text: Cell lines tested: MEC-1 cells (DSMZ# ACC497). Culture conditions of cell lines used are according to supplier's information. Cell Medium: lscove's Modified Dulbecco's Medium (IMDM), Invitrogen, Cat No.: 31980; RPMI1640, Invitrogen, Cat No.: 31870; GlutaMAX, Invitrogen, CAT No.: 35050; FCS: Sigma CAT No.: F7524 LOT No.: 111M3396. NKs: RPMI1640, with GlutaMAX, Invitrogen, Cat No.: 31870, 10% FCS; Biocoll: Biochrome AG CAT No.: L6115 LOT No.: 0034D; MACS NK cell isolation kit: Miltenyi Biotec CAT No.: 130-092-657 LOT No.: 5150402327; venetoclax: Selleck Chem. CAT No.: S8048 LOT No.: S804803; FCS: Sigma CAT No.: F7524 LOT No.: 111M3396; and RefmAb33 (anti-RSV) with same Fc region as MOR00208.
The cytotoxic potential of MOR00208 and venetoclax alone and in combination were tested in the MEC-1 cell line (CLL). Target cell killing is measured using the following parameters: venetoclax mono treatment at concentrations of 3 μM, 6.5 μM, and 10 μM; MOR00208 mono treatment at concentrations of 0.01 pM, 0.1 pM, 1 pM, 10 pM, 100 pM and 10 nM, and the combination treatment of the listed venetoclax and MOR00208 concentrations. The following are used as controls: RefnnAb33, NK cells alone, MEC-1 cells alone or DMSO. In the venetoclax mono groups as well as in the MOR00208+venetoclax combination groups, target cells were pretreated with venetoclax or with DMSO control for 24 hours followed by removal of the dead cells prior to the ADCC assay. A dead cell removal kit was used to remove cells killed by the cytotoxic effect of venetoclax. The dead cell removal kit was implemented to mimick the removal of dead cells that also occurs in vivo and to prevent false negative interference of the dead cells with the subsequent ADCC assay. For the ADCC assay, target cells are counted and stained using CFSE at a final concentration of 1 μg/mL. For the control group, i.e. DMSO treated target cells, the effector: target (E:T) cell ratio was adjusted to 2:1, i.e. 1×10E6/nnL effector cells (NK cells) and 5×10E5/mL target cells (MEC-1 cells). […] The ADCC assays were performed as follows: using 96 well plates, 100 μL of MEC-1 target cell suspension was added per well, followed by 100 μL NK effector cell suspension per well. Mixed cell suspensions were centrifuged and resuspended in 100 μL antibody containing medium or the according control solution. The antibodies were diluted in a range of 10 nM-0.01 pM (corresponds to 1.5 μg/mL-1.5 pg/mL) in medium. The ADCC assays were incubated for 2 hours in a CO2-incubator at 37° C. After 10 minutes incubation on ice, 50 μL DAPI solution was added to each well (final concentration 1 μg/mL) and incubated for additional 10 minutes on ice. The ADCC measurements were performed on a BD FACSVerse instrument. Dead target cells were identified as DAPI positive cells.
Combination Index (CI) calculations are completed in order to determine synergy of the combination of the exemplified anti-CD19 antibody and venetoclax as compared to MOR00208 and venetoclax alone. Such calculations are described in Ting-Chao Chou, Theoretical Basis, Experimental Design, and Computerized Simulation of Synergism and Antagonism in Drug Combination Studies, Pharmacol Rev 58:621-681 (2006), which is incorporated by reference in its entirety and Chou TC, Talalay P, Quantitative analysis of dose-effect relationships: the combined effects of multiple drugs or enzyme inhibitors. Adv Enzyme Regul 22: 27-55 (1984), which is incorporated by reference in its entirety. The methods of Chou-Talalay are carried out using the CI-isobol method.
The median-effect equation models the effect of an inhibitor (such as a drug) as Fa/Fu=(D/D50)^m, where D is the dose, Fa and Fu is the fraction of the system affected and unaffected by the dose D (Fa+Fu=1); D50 is the dose producing the median effect (e.g. IC50, ED50, LD50). The constant m determines the shape of the dose-effect curve.

[2] = tested on: TOLEDO human lymphoma cell tumors; assay: Subcutaneous human lymphoma cell xenograft model in SCID mice; conditions: for Median Survival (Days Post-Randomization): humane endpoint tumor volume 2000 mm3; for Median % Increase in Doubling Time (IDT) / Median % Increase in Lifespan (ILS): vs. PEP/PBS Control
Experimental: Toledo cell line and culture medium were purchased and provided by Oncodesign. […] The cells are adherent to plastic flasks.
A statistical test (analysis of variance, ANOVA) was performed to test for homogeneity between groups. MOR208 was injected intraperitoneally (IP) into the peritoneal cavity of mice. Combined substance was administered by oral gavage (per os, PO) via a gavage tube.
The treatment schedule initiated at D23 was as follows:
Animals from group 1 received one daily PO administration of PEP and one IP injection twice a week of PBS.
Animals from group 4 received one IP injection of MOR208 at 11 mg/kg/inj on D23, D27, D30, D34, D37 and D41 followed by a single IP injection of MOR208 at 11 mg/kg/inj on D48 (twice a week).
The viability and behavior were recorded every day. Body weights and tumor volume were measured twice a week. The length and width of the tumor were measured twice a week with calipers and the volume of the tumor was estimated by the formula:

CC1(C)CCC(CN2CCN(c3ccc(C(=O)NS(=O)(=O)c4ccc(NCC5CCOCC5)c([N+](=O)[O-])c4)c(Oc4cnc5[nH]ccc5c4)c3)CC2)=C(c2ccc(Cl)cc2)C1 [Venetoclax, 4-(4-{[2-(4-Chlorophenyl)-4,4-dimethyl-1-cyclohexen-1-yl]methyl}-1-piperazinyl)-N-({3-nitro-4-[(tetrahydro-2H-pyran-4-ylmethyl)amino]phenyl}sulfonyl)-2-(1H-pyrrolo[2,3-b]pyridin-5-yloxy)benzamide, reference compound]
Theoretical Venetoclax Dose ([1]; Exp 1, same effect as MOR00208 1.50E+00 μg/mL + venetoclax 3.0 μM): 16.0 µM | Theoretical Venetoclax Dose ([1]; Exp 1, same effect as MOR00208 1.50E+00 μg/mL + venetoclax 6.5 μM): 23.9 µM | Theoretical Venetoclax Dose ([1]; Exp 1, same effect as MOR00208 1.50E+00 μg/mL + venetoclax 10.0 μM): 28.4 µM | Theoretical Venetoclax Dose ([1]; Exp 1, same effect as MOR00208 1.50E−02 μg/mL + venetoclax 3.0 μM): 15.1 µM | Theoretical Venetoclax Dose ([1]; Exp 1, same effect as MOR00208 1.50E−02 μg/mL + venetoclax 6.5 μM): 21.9 µM | Theoretical Venetoclax Dose ([1]; Exp 1, same effect as MOR00208 1.50E−02 μg/mL + venetoclax 10.0 μM): 23.0 µM | Theoretical Venetoclax Dose ([1]; Exp 1, same effect as MOR00208 1.50E−03 μg/mL + venetoclax 3.0 μM): 10.4 µM | Theoretical Venetoclax Dose ([1]; Exp 1, same effect as MOR00208 1.50E−03 μg/mL + venetoclax 6.5 μM): 12.7 µM | Theoretical Venetoclax Dose ([1]; Exp 1, same effect as MOR00208 1.50E−03 μg/mL + venetoclax 10.0 μM): 14.0 µM | Theoretical Venetoclax Dose ([1]; Exp 1, same effect as MOR00208 1.50E−04 μg/mL + venetoclax 3.0 μM): 7.2 µM | Theoretical Venetoclax Dose ([1]; Exp 1, same effect as MOR00208 1.50E−04 μg/mL + venetoclax 6.5 μM): 8.5 µM | Theoretical Venetoclax Dose ([1]; Exp 1, same effect as MOR00208 1.50E−04 μg/mL + venetoclax 10.0 μM): 8.9 µM | Theoretical Venetoclax Dose ([1]; Exp 1, same effect as MOR00208 1.50E−05 μg/mL + venetoclax 3.0 μM): 6.3 µM | Theoretical Venetoclax Dose ([1]; Exp 1, same effect as MOR00208 1.50E−05 μg/mL + venetoclax 6.5 μM): 6.9 µM | Theoretical Venetoclax Dose ([1]; Exp 1, same effect as MOR00208 1.50E−05 μg/mL + venetoclax 10.0 μM): 7.4 µM | Theoretical Venetoclax Dose ([1]; Exp 1, same effect as MOR00208 1.50E−06 μg/mL + venetoclax 10.0 μM): 6.4 µM | Actual Venetoclax Effect ([1]; Exp 1, venetoclax 3.0 μM): 8.9 % dead cells | Actual Venetoclax Effect ([1]; Exp 1, venetoclax 6.5 μM): 17.7 % dead cells | Actual Venetoclax Effect ([1]; Exp 1, venetoclax 10.0 μM): 38.8 % dead cells | Theoretical Venetoclax Dose ([1]; Exp 2, same effect as MOR00208 1.50E+00 μg/mL + venetoclax 3.0 μM): 11.2 µM | Theoretical Venetoclax Dose ([1]; Exp 2, same effect as MOR00208 1.50E+00 μg/mL + venetoclax 6.5 μM): 12.5 µM | Theoretical Venetoclax Dose ([1]; Exp 2, same effect as MOR00208 1.50E+00 μg/mL + venetoclax 10.0 μM): 17.6 µM | Theoretical Venetoclax Dose ([1]; Exp 2, same effect as MOR00208 1.50E−02 μg/mL + venetoclax 3.0 μM): 10.6 µM | Theoretical Venetoclax Dose ([1]; Exp 2, same effect as MOR00208 1.50E−02 μg/mL + venetoclax 6.5 μM): 11.9 µM | Theoretical Venetoclax Dose ([1]; Exp 2, same effect as MOR00208 1.50E−02 μg/mL + venetoclax 10.0 μM): 15.0 µM | Theoretical Venetoclax Dose ([1]; Exp 2, same effect as MOR00208 1.50E−03 μg/mL + venetoclax 3.0 μM): 8.6 µM | Theoretical Venetoclax Dose ([1]; Exp 2, same effect as MOR00208 1.50E−03 μg/mL + venetoclax 6.5 μM): 9.4 µM | Theoretical Venetoclax Dose ([1]; Exp 2, same effect as MOR00208 1.50E−03 μg/mL + venetoclax 10.0 μM): 11.3 µM | Theoretical Venetoclax Dose ([1]; Exp 2, same effect as MOR00208 1.50E−04 μg/mL + venetoclax 3.0 μM): 7.3 µM | Theoretical Venetoclax Dose ([1]; Exp 2, same effect as MOR00208 1.50E−04 μg/mL + venetoclax 6.5 μM): 7.9 µM | Theoretical Venetoclax Dose ([1]; Exp 2, same effect as MOR00208 1.50E−04 μg/mL + venetoclax 10.0 μM): 8.8 µM | Theoretical Venetoclax Dose ([1]; Exp 2, same effect as MOR00208 1.50E−05 μg/mL + venetoclax 3.0 μM): 6.6 µM | Theoretical Venetoclax Dose ([1]; Exp 2, same effect as MOR00208 1.50E−05 μg/mL + venetoclax 6.5 μM): 7.1 µM | Theoretical Venetoclax Dose ([1]; Exp 2, same effect as MOR00208 1.50E−05 μg/mL + venetoclax 10.0 μM): 8.0 µM | Theoretical Venetoclax Dose ([1]; Exp 2, same effect as MOR00208 1.50E−06 μg/mL + venetoclax 6.5 μM): 6.7 µM | Theoretical Venetoclax Dose ([1]; Exp 2, same effect as MOR00208 1.50E−06 μg/mL + venetoclax 10.0 μM): 7.2 µM | Actual Venetoclax Effect ([1]; Exp 2, venetoclax 3.0 μM): 19.9 % dead cells | Actual Venetoclax Effect ([1]; Exp 2, venetoclax 6.5 μM): 32.4 % dead cells | Actual Venetoclax Effect ([1]; Exp 2, venetoclax 10.0 μM): 73.9 % dead cells | Theoretical Venetoclax Dose ([1]; Exp 3, same effect as MOR00208 1.50E+00 μg/mL + venetoclax 3.0 μM): 16.6 µM | Theoretical Venetoclax Dose ([1]; Exp 3, same effect as MOR00208 1.50E+00 μg/mL + venetoclax 6.5 μM): 29.4 µM | Theoretical Venetoclax Dose ([1]; Exp 3, same effect as MOR00208 1.50E+00 μg/mL + venetoclax 10.0 μM): 31.0 µM | Theoretical Venetoclax Dose ([1]; Exp 3, same effect as MOR00208 1.50E−02 μg/mL + venetoclax 3.0 μM): 15.4 µM | Theoretical Venetoclax Dose ([1]; Exp 3, same effect as MOR00208 1.50E−02 μg/mL + venetoclax 6.5 μM): 22.3 µM | Theoretical Venetoclax Dose ([1]; Exp 3, same effect as MOR00208 1.50E−02 μg/mL + venetoclax 10.0 μM): 31.0 µM | Theoretical Venetoclax Dose ([1]; Exp 3, same effect as MOR00208 1.50E−03 μg/mL + venetoclax 3.0 μM): 10.2 µM | Theoretical Venetoclax Dose ([1]; Exp 3, same effect as MOR00208 1.50E−03 μg/mL + venetoclax 6.5 μM): 12.2 µM | Theoretical Venetoclax Dose ([1]; Exp 3, same effect as MOR00208 1.50E−03 μg/mL + venetoclax 10.0 μM): 18.4 µM | Theoretical Venetoclax Dose ([1]; Exp 3, same effect as MOR00208 1.50E−04 μg/mL + venetoclax 3.0 μM): 7.9 µM | Theoretical Venetoclax Dose ([1]; Exp 3, same effect as MOR00208 1.50E−04 μg/mL + venetoclax 6.5 μM): 9.0 µM | Theoretical Venetoclax Dose ([1]; Exp 3, same effect as MOR00208 1.50E−04 μg/mL + venetoclax 10.0 μM): 11.6 µM | Theoretical Venetoclax Dose ([1]; Exp 3, same effect as MOR00208 1.50E−05 μg/mL + venetoclax 3.0 μM): 6.4 µM | Theoretical Venetoclax Dose ([1]; Exp 3, same effect as MOR00208 1.50E−05 μg/mL + venetoclax 6.5 μM): 7.5 µM | Theoretical Venetoclax Dose ([1]; Exp 3, same effect as MOR00208 1.50E−05 μg/mL + venetoclax 10.0 μM): 9.6 µM | Theoretical Venetoclax Dose ([1]; Exp 3, same effect as MOR00208 1.50E−06 μg/mL + venetoclax 6.5 μM): 6.4 µM | Theoretical Venetoclax Dose ([1]; Exp 3, same effect as MOR00208 1.50E−06 μg/mL + venetoclax 10.0 μM): 8.4 µM | Actual Venetoclax Effect ([1]; Exp 3, venetoclax 3.0 μM): 7.7 % dead cells | Actual Venetoclax Effect ([1]; Exp 3, venetoclax 6.5 μM): 16.3 % dead cells | Actual Venetoclax Effect ([1]; Exp 3, venetoclax 10.0 μM): 48.1 % dead cells | Median Tumor Doubling Time ([2]; ABT-199 20 mg/kg p.o. daily): 9.6^a Days | Median Survival (Days Post-Randomization) ([2]; ABT-199 20 mg/kg p.o. daily): 30.0^a Days | Median % Increase in Doubling Time (IDT) ([2]; ABT-199 20 mg/kg p.o. daily): 44% | Median % Increase in Lifespan (ILS) ([2]; ABT-199 20 mg/kg p.o. daily): 43% | Median Tumor Doubling Time ([2]; ABT-199 40 mg/kg p.o. daily): 11.1^a Days | Median Survival (Days Post-Randomization) ([2]; ABT-199 40 mg/kg p.o. daily): 36.2^a Days | Median % Increase in Doubling Time (IDT) ([2]; ABT-199 40 mg/kg p.o. daily): 64% | Median % Increase in Lifespan (ILS) ([2]; ABT-199 40 mg/kg p.o. daily): 72%
